For 3 compounds, log reduction results are on record in patent US12419305B2, “Antimicrobial compositions” (Firmenich SA, priority 2018, dated 2025).

The subject of test [1] is S. aureus ATCC 6538. Nature of the test: BCT test (bacterial contact time), 60 s, log reduction / effect fraction; CI by Compusyn. Type of test: cell-based, Staphylococcus aureus. As to conditions: Staphylococcus aureus, ATCC6538, 1 min, 60 s, in 25% EtOH; for log reduction at 0.05 % strength: dose 0.050 % w/v. In outline: (§1)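 Ethanol solutions of ingredient blends and single ingredients, 5 replicates; bacteria ~1×10^8/mL added 1:1; contact 45 or 60 s as listed; three 1:10 then 17 1:2 dilutions; regrowth 37° C, OD600; viable log CFU → log reduction vs ethanol. CI <0.9 = synergy.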

Test [2] relates to S. haemolyticus 114126. Nature of the test: BCT test (bacterial contact time), 120 s, log reduction / effect fraction; CI by Compusyn. Type of test: cell-based. As to conditions: Staphylococcus haemolyticus, 114126, 2 min, contact 120 s, 25% EtOH; for log reduction at 0.1 % strength: dose 0.1% w/v; for log reduction at 0.125 % strength: dose 0.125% w/v; for log reduction at 0.15 % strength: dose 0.15% w/v. The procedure, abridged: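 S. haemolyticus 114126 (skin isolate), grown to OD600 1-2 in BHI-TW80 and resuspended at 1-5×10^8 CFU/mL, was mixed 1:1 with ethanolic perfume compositions or ethanol alone for 45, 60 or 120 s. Viable counts came from serial-dilution regrowth (37 °C, turbidity OD600), giving log reduction versus ethanol control; CI was computed from concentration–effect fraction pairs.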

The subject of test [3] is C. xerosis ATCC 373. The description is as above. The class given is cell-based. As to conditions: Corynebacterium xerosis, ATCC373, 2 min, contact 120 s, 25% EtOH; for log reduction at 0.2 % strength: dose 0.2% w/v; for log reduction at 0.2 % strength / log reduction at 0.25 % strength / log reduction at 0.3 % strength: read-out: Log reduction; for log reduction at 0.25 % strength: dose 0.25% w/v; for log reduction at 0.3 % strength: dose 0.3% w/v. The procedure, abridged:
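C. xerosis cells grown in BHI-TW80 at 37 °C to OD600 1.6 were exposed to ethanolic perfume compositions for 120 s. Viable counts (log CFU) came from serial dilution and OD600 growth after 37 °C incubation, giving log reduction versus ethanol control. CI was computed from concentrations and effect fractions, with <0.9 taken as synergy.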

The subject of test [4] is Pseudomonas aeruginosa ATCC 15442. Nature of the test: BCT test (bacterial contact time), 60 s, log reduction / effect fraction; CI by Compusyn. Type of test: cell-based. As to conditions: Pseudomonas aeruginosa, ATCC15442, 1 min, BCT 60 s, in 25% EtOH; for log reduction at 0.05 % strength: Dose 0.05 % w/v. The procedure, abridged: as §1
For test [5], the system named is Salmonella enterica ATCC 10708. The description is as above. The class given is cell-based. As to conditions: Salmonella enterica, ATCC10708, 1 min, BCT 60 s, in 25% EtOH. In outline:
as §1

On to `CCC(C)(O)CCCC(C)C` (centres unmarked) [Tetralinol, 3,7-Dimethyl-3-octanol], for which the log reduction at 0.0375 % strength in test [1] (dose 0.0375 % w/v) is 1.3. The log reduction at 0.05 % strength in test [1] was found to be 5.5; in test [3] (dose 0.05% w/v) it was 0.1; in test [4], 3.2; in test [5] (Dose 0.05 % w/v, read-out: Log reduction) it was 6.2. The log reduction at 0.075 % strength in test [1] (dose 0.075 % w/v) came to 7.3; in test [2] (dose 0.075% w/v), 1.2; in test [4] (Dose 0.075 % w/v), 3.9. Also, the figures for the log reduction at 0.1 % strength in test [1] (dose 0.100 % w/v), in test [2] and in test [4] (Dose 0.1 % w/v) were 7.5, 5 and 7.1, respectively. Besides, the log reduction at 0.125 % strength in test [2] was 7.3; in test [4] (Dose 0.125 % w/v), 7.1. The log reduction at 0.15 % strength in test [2] came to 7.1. Moreover, in test [3], the log reduction at 0.2 % strength amounted to 5.7. Further, the log reduction at 0.25 % strength in test [3] worked out at 6.4. In addition, in test [3], the log reduction at 0.3 % strength turned out to be 6.5. The log reduction at 0.025 % strength in test [4] (Dose 0.025 % w/v) worked out at 1.2. For the same compound, the log reduction at 0.04 % strength in test [5] (Dose 0.04 % w/v) was 5.3.
Turning to `CC(CCO)CCc1ccccc1` (centres unmarked) [Phenylhexanol, 3-methyl-5-phenyl-1-pentanol], the log reduction at 0.05 % strength in test [1] was 1; in test [4] it was 3.7. Moreover, the values for the log reduction at 0.06 % strength in test [1] (dose 0.060 % w/v) and in test [4] (Dose 0.06 % w/v) were 3.3 and 5.3, respectively. Also, the log reduction at 0.07 % strength came to 6.7 in test [1] (dose 0.070 % w/v) and 7.1 in test [4] (Dose 0.07 % w/v). In addition, the log reduction at 0.08 % strength in test [1] (dose 0.080 % w/v) turned out to be 7; in test [4] (Dose 0.08 % w/v) it was 7.5. The log reduction at 0.09 % strength in test [1] (dose 0.090 % w/v) was found to be 7.5. Also, in test [2], the log reduction at 0.1 % strength was determined as 1.2. For the same compound, in test [2], the log reduction at 0.125 % strength came to 3.9. The values for the log reduction at 0.15 % strength in test [2] and in test [3] (dose 0.15% w/v) were 6.1 and 2.5, respectively. In addition, in test [2] (dose 0.175% w/v, read-out: Log reduction), the log reduction at 0.175 % strength turned out to be 6.9. The values for the log reduction at 0.2 % strength in test [2] (dose 0.2% w/v) and in test [3] were 7.3 and 4.2, respectively. Also, the log reduction at 0.25 % strength in test [3] came to 5.1. Moreover, the log reduction at 0.3 % strength in test [3] was found to be 5.9. In addition, in test [5] (Dose 0.045 % w/v), the log reduction at 0.045 % strength came out at 7.9.
For the compound `O=c1ccc2ccccc2o1` [Coumarine, 2H-chromen-2-one], the log reduction at 0.5 % strength in test [1] (dose 0.500 % w/v, read-out: Log reduction) is -0.1; in test [2] (dose 0.5% w/v), 0; in test [4] (Dose 0.5 % w/v), 2.9; in test [5] (Dose 0.500 % w/v), 7.5. For the same compound, the log reduction at 0.75 % strength in test [1] (dose 0.750 % w/v, read-out: Log reduction) is 0.4; in test [2] (dose 0.75% w/v), 0.7; in test [3] (dose 0.75% w/v), -0.2. Besides, the log reduction at 0.875 % strength in test [1] (dose 0.875 % w/v) was 0.8. The log reduction at 1 % strength turned out to be 2.1 in test [1] (dose 1.000 % w/v, read-out: Log reduction); 1.7 in test [2] (dose 1.0% w/v); 0.8 in test [3] (dose 1.0% w/v). Besides, the log reduction at 1.25 % strength in test [1] (dose 1.250 % w/v) was found to be 7; in test [2] (dose 1.25% w/v), 6.3; in test [3] (dose 1.25% w/v), 2.6. Moreover, the log reduction at 1.5 % strength in test [2] (dose 1.5% w/v) was found to be 7.5; in test [3] (dose 1.5% w/v) it was 2.7. In addition, the log reduction at 0.3 % strength in test [4] (Dose 0.3 % w/v, read-out: Log reduction) worked out at 0.4; in test [5] (Dose 0.300 % w/v), 0.2. Further, the log reduction at 0.35 % strength in test [4] (Dose 0.35 % w/v) came out at 0.4. The log reduction at 0.4 % strength in test [4] (Dose 0.4 % w/v, read-out: Log reduction) stood at 0.7; in test [5] (Dose 0.400 % w/v), 3. Moreover, the log reduction at 0.45 % strength in test [4] (Dose 0.45 % w/v, read-out: Log reduction) turned out to be 1.2; in test [5] (Dose 0.450 % w/v) it was 5.1. Further, the log reduction at 0.6 % strength in test [5] (Dose 0.600 % w/v) worked out at 7.5.
